Data published in patent publication US5585259A, “Ecotin as a factor Xa, XIa, and XIIa inhibitor” (Corvas International, Inc., priority 1993, dated 1996).

What was measured:
thrombin = test: Protease assay, chromogenic substrate; format: biochemical; details: 30 minutes preincubation, read-out: Inhibition constant
Experimental: (§1) Protease activity was determined using commercially available chromogenic substrates and purified proteases. The initial rate was determined with a Thermomax (Molecular Devices) microtiterplate reader at 405 nm wavelength at room temperature. The buffer used for all measurements contained 100 mM TRIS, 140 mM NaCl, 0.1% BSA, pH 7.4. […]
To determine inhibition constants, the protease was incubated during 90 minutes (factor Xa), 45 minutes (trypsin), or 30 minutes (thrombin, plasmin, factor VIIa-tissue factor, human plasma kallikrein, porcine pancreatic elastase, factor XIa, factor XIIa, activated protein C, recombinant t-PA and urokinase) in 150 μl before the substrate (50 μl) was added. The inhibition constant was determined from a plot of the relative activity versus the inhibitor concentration fitted with the following equation: […]
except for thrombin where the total enzyme concentration can be neglected compared to the inhibitor concentration and the equation is reduced to:
vi /vo =1/(1+[It ]/Ki *).
vi and vo are the initial rates measured in presence and in absence of inhibitor, [It ] and [Et ] are the total inhibitor and enzyme concentrations and Ki * is the apparent inhibition constant. […]

chymotrypsin = test: Protease assay; format: biochemical; details: read-out: Inhibition constant
Experimental: Protease activity was determined using commercially available chromogenic substrates and purified proteases. The initial rate was determined with a Thermomax (Molecular Devices) microtiterplate reader at 405 nm wavelength at room temperature. The buffer used for all measurements contained 100 mM TRIS, 140 mM NaCl, 0.1% BSA, pH 7.4.
(§2) vi /vo ={([Et ]-[It ]-Ki *)+[([It ]+i
(§3) *-[Et ])^2 +4Ki *[Et ]]^ 1/2 }/2[Et ]
(§4) vi and vo are the initial rates measured in presence and in absence of inhibitor, [It ] and [Et ] are the total inhibitor and enzyme concentrations and Ki * is the apparent inhibition constant. It was assumed that under these conditions the apparent inhibition constant is not dependent on the substrate concentration and corresponds to the binding constant of the inhibitor to the active site of the protease in the conditions of the experiment.

activated protein C = test: Protease assay, chromogenic substrate; format: biochemical; details: 30 minutes preincubation, read-out: Inhibition constant
Experimental: as §1
(§5) To determine inhibition constants, the protease was incubated during 90 minutes (factor Xa), 45 minutes (trypsin), or 30 minutes (thrombin, plasmin, factor VIIa-tissue factor, human plasma kallikrein, porcine pancreatic elastase, factor XIa, factor XIIa, activated protein C, recombinant t-PA and urokinase) in 150 μl before the substrate (50 μl) was added. The inhibition constant was determined from a plot of the relative activity versus the inhibitor concentration fitted with the following equation:
as §2, §3, §4

[1] = system: factor VIIa-tissue factor complex; test: Protease assay, chromogenic substrate; format: biochemical; details: concentrations up to 1 μM
Experimental: as §1, §5, §2, §3, §4

factor XIIA = test: Protease assay, chromogenic substrate; format: biochemical; details: 30 minutes preincubation, read-out: Inhibition constant
Experimental: as §1, §5, §2, §3, §4

factor XIa = test: Protease assay, chromogenic substrate; format: biochemical; details: 30 minutes preincubation, read-out: Inhibition constant
Experimental: as §1, §5, §2, §3, §4

factor Xa = test: Protease assay, chromogenic substrate; format: biochemical; details: 90 minutes preincubation, read-out: Inhibition constant
Experimental: as §1, §5, §2, §3, §4

human plasma kallikrein = test: Protease assay, chromogenic substrate; format: biochemical; details: 30 minutes preincubation, read-out: Inhibition constant
Experimental: as §1, §5, §2, §3, §4

plasmin = test: Protease assay, chromogenic substrate; format: biochemical
Experimental: as §1, §5, §2, §3, §4

rt-PA = test: Protease assay, chromogenic substrate; format: biochemical; details: 30 minutes preincubation, read-out: Inhibition constant
Experimental: as §1, §5, §2, §3, §4

urokinase = test: Protease assay, chromogenic substrate; format: biochemical; details: 30 minutes preincubation, read-out: Inhibition constant
Experimental: as §1, §5, §2, §3, §4

[2] = system: occlusive thrombus formation in rat carotid artery; test: Rat model of FeCl3-induced platelet-dependent arterial thrombosis; format: in vivo; details: 10 μg/kg/min continuous intravenous infusion
Source text: The rat model is a well characterized model of platelet dependent, arterial thrombosis which has been used in the evaluation potential antithrombotic compounds such as direct thrombin inhibitors. Kurz et al., 60 Thromb. Res. 269, 1990. […] In this model a platelet-rich, occlusive thrombus is formed in a segment of the rat carotid artery treated with a fresh solution of FeCl3 absorbed to a piece of filter paper. The FeCl3 is thought to diffuse into the treated segment of artery and causes de-endothelialization resulting in thrombus formation. The effect of a test compound on the incidence of occlusive thrombus formation following the application of the FeCl3 is monitored by ultrasonic flowtometry, and is used as the primary end point. The use of flowtometry is a modification of the original procedure in which thermal detection of clot formation was employed. Kurz et al., supra.
Male Harlan Sprague Dawley rats (420-450 g) were acclimated at least 72 hours prior to use and fasted for 12 hours prior to surgery with free access to water. The animals were prepared, anesthetized with Nembutal with catheters for blood pressure monitoring, drug and anesthesia delivery being implanted as described above. The left carotid artery was isolated by making a midline cervical incision followed by blunt dissection and spreading techniques to separate a 2 cm segment of the vessel from the carotid sheath. A silk suture was inserted under the proximal and distal ends of the isolated vessel to provide clearance for the placement of an ultrasonic flow probe (Transonic) around the proximal end of the vessel. […]
Following surgery, the animals were randomized in either a control (saline infusion) or treatment group with test compound (Ecotin) with at least 4 animals per group at the indicated dose. […] Blood pressure, blood flow, heart rate, and respiration were monitored for 60 minutes.
The incidence of occlusion (defined as the attainment of zero blood flow) was recorded as the primary end point. […] The segment was re-weighed following removal of the clot and the difference recorded as total % clot weight. […]

pancreatic elastase = details: cited from earlier work
rat mast cell chymase = details: cited from earlier work
human serosal urokinase = details: cited from earlier work
human pulmonary tryptase = details: cited from earlier work
kallikrein = details: cited from earlier work
papain = details: cited from earlier work
pepsin = details: cited from earlier work
[3] = system: Staphylococcus aureus V8 protease; details: cited from earlier work
subtilisin = details: cited from earlier work
thermolysin = details: cited from earlier work
[4] = system: eight soluble endoproteases which are isolated from E. coli (Do, Re, Mi, Fa, So, La, Ci, Pi); details: cited from earlier work
[5] = system: chymotrypsin-like (protease I) esterase; details: cited from earlier work
[6] = system: trypsin-like (protease II) esterase; details: cited from earlier work
[7] = system: three membrane-associated serine proteases; details: cited from earlier work
trypsin = details: cited from earlier work
elastase = details: cited from earlier work

Ecotin: endogenous E. coli periplasmic serine protease (trypsin) inhibitor protein; recombinant form from pMa5-CI, molecular mass 16,098 Daltons
Ki (thrombin): 7200 nM | Ki (chymotrypsin): < 2.5 nM | Ki (activated protein C): > 2500 nM | inhibition of factor VIIa-tissue factor complex [1]: not inhibited | Ki (factor XIIA): < 2.5 nM | Ki (factor XIa): 2.5 to 25 nM | Ki (factor Xa): 0.05 to 0.2 nM | Ki (human plasma kallikrein): 1.4 nM | Plasmin inhibition (plasmin; 1 μM recombinant Ecotin): 15% | Inhibition constant (plasmin; plasmin, 30 minutes preincubation): inactive | Ki (rt-PA): > 2500 nM | Ki (urokinase): > 2500 nM | Time to Occlusion [2]: 20.1 ± 0.9 min | Incidence of Occlusion ([2]; 60 minute observation): 2/6 | Clot Formation (%) ([2]; p<0.01 vs Control): 12.73 ± 8.04% | inhibition of pancreatic elastase (pancreatic elastase): potent inhibitor | inhibition of rat mast cell chymase (rat mast cell chymase): potent inhibitor | inhibition of human serosal urokinase (human serosal urokinase): potent inhibitor | inhibition of human pulmonary tryptase (human pulmonary tryptase): does not inhibit | inhibition of kallikrein (kallikrein): does not inhibit | inhibition of papain (papain): does not inhibit | inhibition of pepsin (pepsin): does not inhibit | inhibition of Staphylococcus aureus V8 protease [3]: does not inhibit | inhibition of subtilisin (subtilisin): does not inhibit | inhibition of thermolysin (thermolysin): does not inhibit | inhibition of the eight soluble E. coli endoproteases [4]: does not inhibit | inhibition of chymotrypsin-like (protease I) esterase in E. coli [5]: does not inhibit | inhibition of trypsin-like (protease II) esterase in E. coli [6]: does not inhibit | inhibition of three membrane-associated serine proteases [7]: insensitive to inhibition | inhibition of trypsin (trypsin): able to inhibit | inhibition of elastase (elastase): able to inhibit
